{"source": "the OPERA property sets (Mansouri et al. 2018)", "data": [{"conditions": "not given", "units": {"melting point": "°C", "boiling point": "°C"}, "values": [{"smiles": "C=C[C@H]1C[N@@]2CC[C@H]1C[C@H]2C12Nc3ccccc3C1(O)CCO2", "note": "(stereo partly drawn)", "melting point": 186}, {"smiles": "O=C(O)CCCc1ccccc1", "boiling point": 290, "melting point": 52}, {"smiles": "CCC#CC(C)C", "boiling point": 95.2, "melting point": -117}, {"smiles": "COP(=S)(OC)Oc1ccc([N+](=O)[O-])cc1Cl", "log10 vapour pressure (mmHg)": -5.44, "melting point": 52.5}, {"smiles": "O=[N+]([O-])c1cccc2c([N+](=O)[O-])cccc12", "melting point": 219, "ready biodegradability": "not readily biodegradable"}, {"smiles": "C=C(C)c1ccccc1C", "boiling point": 175}, {"smiles": "CN1CCN(C)CC1", "boiling point": 131}, {"smiles": "NS(=O)(=O)c1cc2c(cc1Cl)NC(C1CC3C=CC1C3)NS2(=O)=O", "note": "(stereo not drawn)", "melting point": 234}, {"smiles": "O=NN(c1ccccc1)c1ccccc1", "log10 Koc (L/kg)": 3.08, "melting point": 66.5, "ready biodegradability": "readily biodegradable"}, {"smiles": "C[Si](C)(C)O[Si](O[Si](C)(C)C)(O[Si](C)(C)C)O[Si](C)(C)C", "log10 vapour pressure (mmHg)": -1.17}, {"smiles": "CCCOCC(C)OCC(C)O", "note": "(stereo not drawn)", "boiling point": 212, "melting point": 7.08}, {"smiles": "CCCCCC(=O)OCCCC", "boiling point": 208, "melting point": -64.3}, {"smiles": "C1CC2CCC1CC2", "log10 vapour pressure (mmHg)": 0.523}, {"smiles": "C[C@@H]1CC[C@H]2C(C)(C)[C@H]3C[C@@]12CC[C@@]3(C)O", "melting point": 86}, {"smiles": "Nc1ccc(Oc2ccccc2)cc1", "melting point": 83}, {"smiles": "OCCN1CCN(CCCN2c3ccccc3C=Cc3ccccc32)CC1", "melting point": 100}, {"smiles": "CC(C)COCCO", "boiling point": 160}, {"smiles": "CCOC(=O)CCCCCC(=O)O", "melting point": 10}, {"smiles": "COc1ccc2c(c1O)-c1c3c(cc4c1[C@H](C2)N(C)CC4)OCO3", "melting point": 200}, {"smiles": "Cn1c2ccccc2c2ccccc21", "melting point": 89.3}, {"smiles": "O=Cc1c(O)ccc2ccccc12", "melting point": 83, "ready biodegradability": "readily biodegradable"}, {"smiles": "Clc1ccc(Br)cc1Cl", "boiling point": 237, "melting point": 25}, {"smiles": "COc1ccc(Cn2cncn2)cc1", "melting point": 41.5}, {"smiles": "CCOC(=O)c1cccc(Cl)c1", "boiling point": 243}, {"smiles": "CC(=O)OC(OC(C)=O)c1cccc([N+](=O)[O-])c1", "melting point": 72}, {"smiles": "Cc1ccc([N+](=O)[O-])c(O)c1", "log10 Henry constant (atm·m³/mol)": -4.89, "log10 vapour pressure (mmHg)": -1.7, "melting point": 53, "ready biodegradability": "not readily biodegradable"}, {"smiles": "CC(=O)CC(C)=O", "boiling point": 138, "log10 vapour pressure (mmHg)": 0.471, "melting point": -23, "ready biodegradability": "readily biodegradable"}, {"smiles": "CCOC(=O)COc1ccc2c(=O)cc(-c3ccccc3)oc2c1", "melting point": 124}, {"smiles": "O=C(O)CCOc1ccccc1", "boiling point": 240, "melting point": 97.5}, {"smiles": "O=C=S", "boiling point": -50, "log10 vapour pressure (mmHg)": 3.97, "melting point": -139}, {"smiles": "Oc1ccc(O)c(O)c1", "melting point": 140}, {"smiles": "Cc1ccc(/N=C/N(C)/C=N/c2ccc(C)cc2C)c(C)c1", "log10 Henry constant (atm·m³/mol)": -5.01, "log10 Koc (L/kg)": 3, "log10 vapour pressure (mmHg)": -5.7, "melting point": 86}, {"smiles": "O=C(c1ccccc1)C(O)c1ccccc1", "note": "(racemic)", "boiling point": 344, "log10 vapour pressure (mmHg)": -5.28, "melting point": 137}, {"smiles": "C=C1CC(=O)OC1=O", "melting point": 69}, {"smiles": "O=[N+]([O-])O[C@H]1CO[C@H]2[C@@H]1OC[C@H]2O[N+](=O)[O-]", "melting point": 70}, {"smiles": "O=C1C=CCC1", "boiling point": 136}, {"smiles": "CC(Br)CCBr", "note": "(stereo not drawn)", "boiling point": 174}, {"smiles": "CNc1ccccc1C(=O)O", "melting point": 180, "ready biodegradability": "readily biodegradable"}, {"smiles": "O=CNC(N1CCN(C(NC=O)C(Cl)(Cl)Cl)CC1)C(Cl)(Cl)Cl", "note": "(stereo not drawn)", "log10 Koc (L/kg)": 2.3, "log10 vapour pressure (mmHg)": -6.7}, {"smiles": "CC1CC(C)CC(C)C1", "note": "(mixture of isomers)", "boiling point": 141}, {"smiles": "O=[N+]([O-])c1ccc(Oc2ccccc2)cc1", "boiling point": 320, "melting point": 61}, {"smiles": "O=S(O)c1ccccc1", "melting point": 84, "ready biodegradability": "not readily biodegradable"}, {"smiles": "CCC1(C2=CCCCCC2)C(=O)NC(=O)NC1=O", "melting point": 174}, {"smiles": "Nc1nccs1", "melting point": 93, "ready biodegradability": "not readily biodegradable"}, {"smiles": "COc1ccc(CC(=O)O)cc1", "melting point": 87}, {"smiles": "CCCCCCC#N", "boiling point": 183}, {"smiles": "CC=C(C)CCC", "log10 vapour pressure (mmHg)": 1.7}, {"smiles": "CC(C)(C)c1cc([N+](=O)[O-])c(O)c([N+](=O)[O-])c1", "melting point": 95}, {"smiles": "CC(Cc1ccc(C(C)(C)C)cc1)CN1CCCCC1", "note": "(stereo not drawn)", "log10 vapour pressure (mmHg)": -3.89}, {"smiles": "O=C(O)c1cc(Br)ccc1Br", "melting point": 157}, {"smiles": "COc1ccccc1OCC(O)CO", "note": "(stereo not drawn)", "melting point": 78.5}, {"smiles": "CCc1ccc(C)c(C)c1", "boiling point": 190, "log10 biodegradation half-life (days)": 0.699, "log10 vapour pressure (mmHg)": -0.126, "melting point": -66.9}, {"smiles": "CC(=O)OCC(=O)[C@@]1(O)CC[C@H]2[C@@H]3C[C@H](C)C4=CC(=O)C=C[C@]4(C)[C@H]3[C@@H](O)C[C@@]21C", "melting point": 206}, {"smiles": "Clc1cc(Cl)c(C(Cl)Cl)cc1Cl", "boiling point": 280}, {"smiles": "O=C(CCCN1CC=C(n2c(=O)[nH]c3ccccc32)CC1)c1ccc(F)cc1", "melting point": 146}, {"smiles": "CN(C)c1ccc(C#N)cc1", "boiling point": 318, "melting point": 74}, {"smiles": "CNc1nc(NC(C)C)nc(SC)n1", "boiling point": 345, "log10 vapour pressure (mmHg)": -6, "melting point": 85}, {"smiles": "CCF", "boiling point": -37.6, "log10 vapour pressure (mmHg)": 3.84, "melting point": -143}, {"smiles": "Cn1sc(Cl)cc1=O", "ready biodegradability": "not readily biodegradable"}, {"smiles": "CCC(C)(c1ccc(O)cc1)c1ccc(O)cc1", "melting point": 120}, {"smiles": "c1ccc2c(c1)CCO2", "boiling point": 188, "melting point": -21.5}, {"smiles": "O=C(O)Cc1cccnc1", "melting point": 144}, {"smiles": "O=C(Nc1ccccc1)N(Cc1ccc(Cl)cc1)C1CCCC1", "log10 Henry constant (atm·m³/mol)": -11.3, "log10 vapour pressure (mmHg)": -11.4, "melting point": 130}, {"smiles": "CN(C)c1ccc(Br)cc1", "boiling point": 264, "melting point": 55}, {"smiles": "O=c1[nH]c2ccccc2c(-c2ccccc2)c1O", "melting point": 268}, {"smiles": "COc1ccc(C(O)(c2cncnc2)C2CC2)cc1", "note": "(stereo not drawn)", "log10 Henry constant (atm·m³/mol)": -10.8, "log10 Koc (L/kg)": 2.08, "log10 vapour pressure (mmHg)": -6.7, "melting point": 110}, {"smiles": "CC1(O)CCCCCC1", "boiling point": 184}, {"smiles": "OC1CCCCCCC1", "melting point": 25.1}, {"smiles": "CC(C)C(C(=O)OC(C#N)c1cccc(Oc2ccccc2)c1)c1ccc(Cl)cc1", "note": "(stereo not drawn)", "log10 Koc (L/kg)": 3.73, "log10 vapour pressure (mmHg)": -8.82, "melting point": 52.2}, {"smiles": "CCCCOCc1ccco1", "boiling point": 190}, {"smiles": "C[N+]1(CCC(C(N)=O)(c2ccccc2)c2ccccc2)CCCCC1.[Br-]", "melting point": 178}, {"smiles": "O=C[O-].[Na+]", "melting point": 253}, {"smiles": "Oc1ccccc1-c1nc2ccccc2o1", "boiling point": 338, "melting point": 124}, {"smiles": "CCCCCCOc1ccc(N)cc1", "melting point": 44}, {"smiles": "CC1=CCC(=C(C)C)CC1", "boiling point": 186, "log10 Henry constant (atm·m³/mol)": -1.58, "log10 vapour pressure (mmHg)": -0.129, "ready biodegradability": "readily biodegradable"}, {"smiles": "CCC1(c2ccccc2)CCC(=O)NC1=O", "note": "(stereo not drawn)", "melting point": 84}, {"smiles": "CCOC(=O)CCC(C)CC", "note": "(stereo not drawn)", "boiling point": 180}, {"smiles": "NCCc1cnc[nH]1", "melting point": 86}, {"smiles": "CCC(C(=O)O)c1ccc(-c2ccccc2)cc1", "note": "(stereo not drawn)", "melting point": 124}, {"smiles": "CC(C)OC(=O)C1(S(=O)(=O)c2ccc(Cl)cc2)CC1", "melting point": 89.8}, {"smiles": "C1CCC(CCCCCC2CCCCC2)CC1", "boiling point": 325, "melting point": -13.6}, {"smiles": "O=S(=O)(c1ccccc1)c1ccc(Cl)cc1", "melting point": 94}, {"smiles": "O=C(Nc1ccc(Br)cc1)c1c(O)cccc1O", "melting point": 229}, {"smiles": "C=CC(C)O", "note": "(stereo not drawn)", "ready biodegradability": "readily biodegradable"}, {"smiles": "CC(=O)C#N", "boiling point": 92.3}, {"smiles": "Fc1ccc(F)c(F)c1", "boiling point": 90}, {"smiles": "C1CCC2OC2C1", "note": "(stereo not drawn)", "boiling point": 132}, {"smiles": "CCN(CC)C(=S)SC(=S)N(CC)CC", "melting point": 31}, {"smiles": "c1ccc2c(Oc3cccc4ccccc34)cccc2c1", "melting point": 110}, {"smiles": "CCCC(C)CCC(C)C", "note": "(stereo not drawn)", "boiling point": 158, "log10 biodegradation half-life (days)": 0.301}, {"smiles": "Cc1cccc(N)c1C", "boiling point": 222, "log10 vapour pressure (mmHg)": -1.12, "ready biodegradability": "not readily biodegradable"}, {"smiles": "CN[C@H](C)[C@@H](O)c1ccc(O)cc1", "note": "(racemic)", "melting point": 153}, {"smiles": "c1ccc2cc3ccccc3cc2c1", "boiling point": 340, "log10 Henry constant (atm·m³/mol)": -4.25, "log10 Koa": 7.55, "log10 Koc (L/kg)": 4.31, "log10 biodegradation half-life (days)": 2.09, "log10 vapour pressure (mmHg)": -5.19, "melting point": 215, "ready biodegradability": "not readily biodegradable"}, {"smiles": "Cc1cc(Cl)c(O)c(Cl)c1", "boiling point": 231, "melting point": 39}, {"smiles": "CCOC(=O)C(NC(C)=O)C(=O)OCC", "melting point": 96.3}, {"smiles": "c1ccc(-c2nnc(-c3ccccc3)o2)cc1", "melting point": 139}, {"smiles": "CC1(C)C(C=C(Cl)Cl)C1C(=O)OC(C#N)c1cccc(Oc2ccccc2)c1", "note": "(stereo not drawn)", "log10 Koc (L/kg)": 5, "melting point": 81.3}, {"smiles": "C[C@]12CC[C@H]3[C@@H](CCC4=CC(=O)CC[C@@]43C)[C@@H]1CC[C@@H]2OC(=O)CCC1CCCC1", "melting point": 155}, {"smiles": "CCCCCCCCCCCCI", "boiling point": 298, "log10 vapour pressure (mmHg)": -1.85, "melting point": 0.3}, {"smiles": "C(COCCOCC1CO1)OCCOCC1CO1", "note": "(stereo not drawn)", "melting point": -13}, {"smiles": "CC(F)(F)F", "boiling point": -47.5, "log10 vapour pressure (mmHg)": 3.98, "melting point": -111}]}, {"conditions": "fish", "values": [{"smiles": "COP(=S)(OC)Oc1ccc([N+](=O)[O-])cc1Cl", "log10 BCF": 1.89, "log10 biotransformation half-life (days)": 0.01}, {"smiles": "O=NN(c1ccccc1)c1ccccc1", "log10 BCF": 1.33, "log10 biotransformation half-life (days)": -0.91}, {"smiles": "CC(C)C1CCC(C(C)C)CC1", "note": "(stereo not drawn)", "log10 biotransformation half-life (days)": 0.97}, {"smiles": "CC(C)C(C(=O)OC(C#N)c1cccc(Oc2ccccc2)c1)c1ccc(Cl)cc1", "note": "(stereo not drawn)", "log10 BCF": 2.85, "log10 biotransformation half-life (days)": 0.69}, {"smiles": "c1ccc2cc3ccccc3cc2c1", "log10 BCF": 3.26, "log10 biotransformation half-life (days)": 0.65}, {"smiles": "CC1(C)C(C=C(Cl)Cl)C1C(=O)OC(C#N)c1cccc(Oc2ccccc2)c1", "note": "(stereo not drawn)", "log10 BCF": 2.53}]}]}
